Test results as given in patent publication US8134015B2, “Compound inhibiting in vivo phosphorous transport and medicine containing the same” (Kyowa Hakko Kirin Co., Ltd., priority 2003, dated 2012).

Key:
rat NaPi-2b = molecular target: T1, rat NaPi-2b (Rattus norvegicus, UniProt Q9JJ09); test: Sodium-dependent phosphate uptake of Xenopus oocytes which expressed NaPi-2b (32P); type: cell-based; settings: Xenopus oocytes expressing rat NaPi-2b, 32P radioactive phosphorus; read-out: IC50 (phosphate uptake inhibitory activity)
T1 construct: expressed in transfected cells; host or cells: Xenopus oocytes injected with cRNA
T1 sequence (Q9JJ09 1-695): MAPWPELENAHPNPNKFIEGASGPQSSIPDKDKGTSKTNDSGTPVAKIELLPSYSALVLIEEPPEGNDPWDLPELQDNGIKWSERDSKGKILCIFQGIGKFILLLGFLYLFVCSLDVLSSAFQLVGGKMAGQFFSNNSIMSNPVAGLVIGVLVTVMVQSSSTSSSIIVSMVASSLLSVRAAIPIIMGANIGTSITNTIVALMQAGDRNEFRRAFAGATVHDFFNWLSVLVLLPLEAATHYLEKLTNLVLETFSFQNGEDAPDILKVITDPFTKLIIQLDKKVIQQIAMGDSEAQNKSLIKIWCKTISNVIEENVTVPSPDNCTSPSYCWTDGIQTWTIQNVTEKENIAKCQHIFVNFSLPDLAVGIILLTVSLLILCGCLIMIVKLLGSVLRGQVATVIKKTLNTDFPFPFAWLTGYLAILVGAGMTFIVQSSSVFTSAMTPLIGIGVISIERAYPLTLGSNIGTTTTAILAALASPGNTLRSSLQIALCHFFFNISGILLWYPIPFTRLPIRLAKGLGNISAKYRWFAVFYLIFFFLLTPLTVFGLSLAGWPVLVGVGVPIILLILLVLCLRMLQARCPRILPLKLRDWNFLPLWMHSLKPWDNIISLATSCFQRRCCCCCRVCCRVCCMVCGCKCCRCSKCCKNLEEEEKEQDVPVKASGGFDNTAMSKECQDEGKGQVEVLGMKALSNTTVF
Procedure, shortened: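 Read-out is 32P phosphate uptake into Xenopus oocytes expressing rat intestinal NaPi-2b (cRNA injection, 2-day culture). Inhibition at 300 μM and 100 μM was derived from a single inhibition curve and given as percent.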

human NaPi-2a = molecular target: T2, human NaPi-2a (Homo sapiens, UniProt Q06495); test: Sodium-dependent phosphate uptake of Xenopus oocytes which expressed NaPi-2a (32P); type: cell-based; settings: phosphate uptake, Xenopus oocytes expressing human NaPi-2a; five concentration levels
T2 construct: expressed in transfected cells
T2 sequence (Q06495 1-639): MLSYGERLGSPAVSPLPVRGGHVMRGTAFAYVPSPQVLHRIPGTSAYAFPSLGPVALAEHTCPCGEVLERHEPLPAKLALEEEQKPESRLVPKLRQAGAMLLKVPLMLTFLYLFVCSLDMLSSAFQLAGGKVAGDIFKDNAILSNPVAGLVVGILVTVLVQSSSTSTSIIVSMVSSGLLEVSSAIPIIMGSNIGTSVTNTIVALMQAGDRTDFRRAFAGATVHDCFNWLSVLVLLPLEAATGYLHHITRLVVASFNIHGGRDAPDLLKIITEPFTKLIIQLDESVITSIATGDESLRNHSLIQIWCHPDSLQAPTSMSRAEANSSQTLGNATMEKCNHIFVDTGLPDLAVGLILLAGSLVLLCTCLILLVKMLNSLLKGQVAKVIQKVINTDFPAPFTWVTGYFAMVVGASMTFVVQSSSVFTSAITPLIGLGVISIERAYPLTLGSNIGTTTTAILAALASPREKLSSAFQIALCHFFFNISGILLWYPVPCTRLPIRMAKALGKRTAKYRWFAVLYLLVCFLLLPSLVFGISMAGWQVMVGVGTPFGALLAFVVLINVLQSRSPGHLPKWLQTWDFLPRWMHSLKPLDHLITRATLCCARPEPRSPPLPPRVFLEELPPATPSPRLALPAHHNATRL
Excerpt: Experiment of Sodium-Dependent Phosphate Uptake of Xenopus oocytes which Expressed NaPi-2a
In the test, a group with the addition of choline chloride (Choline Cl) was used as a negative control for nonspecific uptake, and PFA (phosphonoformic acid) was used as a positive control for phosphate transport inhibition.

Compound	IC50 (rat NaPi-2b)	IC50 (human NaPi-2a)
O=C(Nc1ccc(N2CCCCC2)cc1C(=O)N/N=C/c1ccc(F)cc1)c1cccc(CSCCO)c1 [Compound 882, N-[2-(4-Fluoro-benzylidene-hydrazinocarbonyl)-4-piperidin-1-yl-phenyl]-3-(2-hydroxy-ethylsulfanylmethyl)-benzamide]	0.33 µM	4.45 µM
CCN(CC)CCN(C)Cc1cccc(C(=O)Nc2ccc(N3CCCCC3)cc2C(=O)N/N=C/c2ccc(C)cc2)c1 [Compound 859, 3-{[(2-Diethylamino-ethyl)-methyl-amino]-methyl}-N-[2-(4-methyl-benzylidene-hydrazinocarbonyl)-4-piperidin-1-yl-phenyl]-benzamide]	0.39 µM	1.6 µM
Cc1ccc(/C=N/NC(=O)c2cc(N3CCCCC3)ccc2NC(=O)c2cccc(CN3CCN(CCO)CC3)c2)cc1C [Compound 864, N-[2-(3,4-Dimethyl-benzylidene-hydrazinocarbonyl)-4-piperidin-1-yl-phenyl]-3-[4-(2-hydroxy-ethyl)-piperazin-1-ylmethyl]-benzamide]	0.74 µM	1.94 µM
CCN(CC)CCNCc1cccc(C(=O)Nc2sc3c(c2C(=O)N/N=C/c2ccc(Cl)c(C(F)(F)F)c2)CCC3)c1 [Compound 814, N-[3-(4-Chloro-3-trifluoromethyl-benzylidene-hydrazinocarbonyl)-5,6-dihydro-4H-cyclopenta[b]thiophen-2-yl]-3-[(2-diethylamino-ethylamino)-methyl]-benzamide]	< 3 µM	18.3 µM
Cc1ccc(/C=N/NC(=O)c2c(C)csc2NC(=O)c2cccc(CN3CCN(c4ncccn4)CC3)c2)cc1 [Compound 827, N-[4-Methyl-3-(4-methyl-benzylidene-hydrazinocarbonyl)-thiophen-2-yl]-3-(4-pyrimidin-2-yl-piperazin-1-ylmethyl)-benzamide]	3.5 µM	24.4 µM
COc1ccc(C(=O)Nc2ccc(N3CCCCC3)cc2C(=O)N/N=C/c2ccc(C)c(C)c2)cc1OC [Compound 935, N-[2-(3,4-Dimethyl-benzylidene-hydrazinocarbonyl)-4-piperidin-1-yl-phenyl]-3,4-dimethoxy-benzamide]	0.17 µM	9.68 µM
Cc1csc(NC(=O)c2cccc(CN3CCN(c4ncccn4)CC3)c2)c1C(=O)N/N=C/c1ccc(Cl)c(C(F)(F)F)c1 [Compound 830, N-[3-(4-Chloro-3-trifluoromethyl-benzylidene-hydrazinocarbonyl)-4-methyl-thiophen-2-yl]-3-(4-pyrimidin-2-yl-piperazin-1-ylmethyl)-benzamide]	4.81 µM	10.7 µM
CCN(CC)CCN(C)Cc1cccc(C(=O)Nc2ccc(N3CCCCC3)cc2C(=O)N/N=C/c2ccc(F)cc2)c1 [Compound 860, 3-{[(2-Diethylamino-ethyl)-methyl-amino]-methyl}-N-[2-(4-fluoro-benzylidene-hydrazinocarbonyl)-4-piperidin-1-yl-phenyl]-benzamide]	0.65 µM	< 1 µM
CC(O)CN(Cc1cccc(C(=O)Nc2sc3ccccc3c2C(=O)N/N=C/c2ccc(F)cc2)c1)CC(C)O (stereo not drawn) [Compound 794, 3-{[Bis-(2-hydroxy-propyl)-amino]-methyl}-N-[3-(4-fluoro-benzylidene-hydrazinocarbonyl)-benzo[b]thiophen-2-yl]-benzamide]	0.97 µM	9.57 µM
Cc1ccc(/C=N/NC(=O)c2cc(N3CCCCC3)ccc2NC(=O)c2cccc(CN3CCN(CCO)CC3)c2)cc1 [Compound 865, 3-[4-(2-Hydroxy-ethyl)-piperazin-1-ylmethyl]-N-[2-(4-methyl-benzylidene-hydrazinocarbonyl)-4-piperidin-1-yl-phenyl]-benzamide]	1.49 µM	4.34 µM
Cc1csc(NC(=O)c2cccc(CN(CC(C)O)CC(C)O)c2)c1C(=O)N/N=C/c1ccc(Cl)c(C(F)(F)F)c1 (stereo not drawn) [Compound 591, 3-{[bis-(2-hydroxy-propyl)-amino]-methyl}-N-[3-(4-chloro-3-trifluoromethyl-benzylidene-hydrazinocarbonyl)-4-methyl-thiophen-2-yl]-benzamide]	1.01 µM	4.04 µM
O=C(Nc1ccc(Br)cc1C(=O)N/N=C/c1ccc(F)cc1)c1ccc(CSCCO)cc1 [Compound 262, N-[4-Bromo-2-(4-fluoro-benzylidene-hydrazinocarbonyl)-phenyl]-4-(2-hydroxy-ethylsulfanylmethyl)-benzamide]	1.1 µM	4.42 µM
Cc1ccc(/C=N/NC(=O)c2cc(Cl)ccc2NC(=O)c2cccc(CSCC(O)CO)c2)cc1C (stereo not drawn) [Compound 1009, N-[4-Chloro-2-(3,4-dimethyl-benzylidene-hydrazinocarbonyl)-phenyl]-3-(2,3-dihydroxy-propylsulfanylmethyl)-benzamide]	0.1 µM	1.41 µM
COc1ccc(C(=O)Nc2ccc(N3CCCCC3)cc2C(=O)N/N=C/c2cccnc2)cc1OC [Compound 936, 3,4-Dimethoxy-N-[4-piperidin-1-yl-2-(pyridin-3-ylmethylene-hydrazinocarbonyl)-phenyl]-benzamide]	5.59 µM	30 µM
CC(O)CN(Cc1cccc(C(=O)Nc2sc3c(c2C(=O)N/N=C/c2cccc(F)c2)CCC3)c1)CC(C)O (stereo not drawn) [Compound 806, 3-{[Bis-(2-hydroxy-propyl)-amino]-methyl}-N-[3-(3-fluoro-benzylidene-hydrazinocarbonyl)-5,6-dihydro-4H-cyclopenta[b]thiophen-2-yl]-benzamide]	3.9 µM	12.1 µM
COc1ccc(/C=N/NC(=O)c2cc(N3CCCCC3)ccc2NC(=O)c2cccc(CSCC(O)CO)c2)cc1 (stereo not drawn) [Compound 904, 3-(2,3-Dihydroxy-propylsulfanylmethyl)-N-[2-(4-methoxy-benzylidene-hydrazinocarbonyl)-4-piperidin-1-yl-phenyl]-benzamide]	1.71 µM	1.69 µM
COc1ccc(/C=N/NC(=O)c2c(C)csc2NC(=O)c2cccc(CN(CC(C)O)CC(C)O)c2)cc1 (stereo not drawn) [Compound 592, 3-{[Bis-(2-hydroxy-propyl)-amino]-methyl}-N-[3-(4-methoxy-benzylidene-hydrazinocarbonyl)-4-methyl-thiophen-2-yl]-benzamide]	11.9 µM	9.51 µM
CCN(CC)CCN(CCN(CC)CC)Cc1cccc(C(=O)Nc2scc(C)c2C(=O)N/N=C/c2ccc(C)cc2)c1 [Compound 839, 3-{[Bis-(2-diethylamino-ethyl)-amino]-methyl}-N-[4-methyl-3-(4-methyl-benzylidene-hydrazinocarbonyl)-thiophen-2-yl]-benzamide]	5.04 µM	23.2 µM
Cc1csc(NC(=O)c2cccc(CN3CCC4(CC3)OCCO4)c2)c1C(=O)N/N=C/c1ccc(Cl)c(C(F)(F)F)c1 [Compound 836, N-[3-(4-Chloro-3-trifluoromethyl-benzylidene-hydrazinocarbonyl)-4-methyl-thiophen-2-yl]-3-(1,4-dioxa-8-aza-spiro[4,5]dec-8-ylmethyl]-benzamide]	0.77 µM	10.2 µM
CCN(CC)CCN(C)Cc1cccc(C(=O)Nc2ccc(OCCOC)cc2C(=O)N/N=C/c2ccc(Cl)c(C(F)(F)F)c2)c1 [Compound 1027, N-[2-(4-Chloro-3-trifluoromethyl-benzylidene-hydrazinocarbonyl)-4-(2-methoxy-ethoxy)-phenyl]-3-{[(2-diethylamino-ethyl)-methyl-amino]-methyl}-benzamide]	1.2 µM	1.58 µM
Cc1ccc(/C=N/NC(=O)c2c(NC(=O)c3cccc(CN(CC(C)O)CC(C)O)c3)sc3c2CCCC3)cc1C (stereo not drawn) [Compound 627, 3-{[Bis-(2-hydroxy-propyl)-amino]-methyl}-N-[3-(3,4-dimethyl-benzylidene-hydrazinocarbonyl)-4,5,6,7-tetrahydro-benzo-[b]thiophen-2-yl]-benzamide]	< 1 µM	3.53 µM
